The record followed here is PubChem BioAssay (NCI).

Among the test systems are A549 NSCLC; BT-549 breast; HCT-116 colon; HOP-62 NSCLC; K-562 leukemia; LOX IMVI melanoma; NCI-H460 lung; NCI-H522 lung; SNB-19 CNS; T-47D breast.
What all share (experiment): DTP human tumour cell line panel, 48 h

Where “and” joins values, the source holds several entries; their conditions need not be identical. Identical values can stand only once.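 A five-concentration, 48-hour dose response in 96-well plates underlies each endpoint, interpolated linearly between surrounding concentrations. The concentration for 50% growth inhibition is given as GI50. TGI: total growth inhibition.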

Broadly, the TGI is the concentration at which net growth stops. As usually defined, the GI50 is the concentration giving 50% growth inhibition. On to `C=CC(=O)N1C/C(=C\c2ccccc2)C(=O)/C(=C/c2ccccc2)C1`, for which the TGI stood at 9 µM with A549 NSCLC; 4.24 µM in the test with BT-549 breast; 0.397 µM in the test on HCT-116 colon; 6.28 µM in the test with HOP-62 NSCLC; 4.04 µM with K-562 leukemia; 0.638 µM in the test with LOX IMVI melanoma. In addition, the total growth inhibition concentration (TGI) in the test on NCI-H460 lung was 4.47 µM; in the test on NCI-H522 lung it was 3.49 µM; with SNB-19 CNS it was 7.12 µM; in the test on T-47D breast it was 18.4 µM. Also, the concentration for 50% growth inhibition (GI50) is 0.355 µM with HCT-116 colon, 0.174 µM in the test with K-562 leukemia, 0.357 µM in the test on LOX IMVI melanoma and 0.348 µM with NCI-H522 lung.
As for `COc1c2ccoc2cc2oc(=O)ccc12`, the concentration for total growth inhibition (TGI) in the test on A549 NSCLC, in the test on BT-549 breast, in the test with HCT-116 colon, in the test with HOP-62 NSCLC, with K-562 leukemia and with LOX IMVI melanoma was > 100 µM in each case. The concentration for total growth inhibition (TGI) with NCI-H460 lung, in the test with NCI-H522 lung, in the test with SNB-19 CNS and in the test with T-47D breast was > 100 µM throughout.
`O=C(c1ccc(OCCN2CCCCC2)cc1)c1c(-c2ccc(O)cc2)sc2cc(O)ccc12`: the GI50 with A549 NSCLC is 13.2 µM and 14.3 µM; in the test on BT-549 breast, 7.8 µM and 12 µM; in the test with HCT-116 colon, 3.68 µM and 8.5 µM; in the test with HOP-62 NSCLC, 10.4 µM and 15.4 µM; in the test on K-562 leukemia, 2.5 µM and 7.63 µM; in the test with LOX IMVI melanoma, 1.76 µM and 4.06 µM. The GI50 in the test with NCI-H460 lung was 4.29 µM and 7.96 µM; with NCI-H522 lung, 11 µM and 16.5 µM; in the test with SNB-19 CNS, 13.7 µM and 15 µM; in the test on T-47D breast, 2.77 µM and 5.89 µM. In addition, the total growth inhibition concentration (TGI) is 29.3 µM and 37.9 µM with A549 NSCLC; 21.5 µM and 27.9 µM in the test with BT-549 breast; 14 µM and 42.7 µM in the test with HCT-116 colon; 22.2 µM and 43.8 µM in the test on HOP-62 NSCLC; 3.45 µM and 15.1 µM in the test with LOX IMVI melanoma; 17.1 µM and 25.9 µM with NCI-H460 lung. The TGI in the test on NCI-H522 lung was 28.6 µM and 37.3 µM; in the test with SNB-19 CNS it was 30.5 µM and 34.2 µM; with T-47D breast, 20 µM and > 50.2 µM.
Regarding `COc1ccc(-c2nsc3c2NC(=O)CC3c2ccc(F)cc2)cc1` (configuration not stated), the GI50 with A549 NSCLC is 4.58 µM; in the test with BT-549 breast, 7.72 µM; in the test on HCT-116 colon, 3.95 µM; in the test on HOP-62 NSCLC, 7.06 µM; with K-562 leukemia, 1.37 µM; in the test on LOX IMVI melanoma, 7.18 µM. Further, the GI50 in the test on NCI-H460 lung is 3.46 µM; with NCI-H522 lung it was 2.52 µM; in the test on SNB-19 CNS it was 7.75 µM; in the test on T-47D breast, 4.64 µM. Besides, the TGI was > 100 µM in the test with A549 NSCLC; > 100 µM in the test with BT-549 breast; > 100 µM in the test with HCT-116 colon; 49 µM in the test with HOP-62 NSCLC; > 100 µM in the test on K-562 leukemia; > 100 µM in the test with LOX IMVI melanoma. The TGI was > 100 µM in the test on NCI-H460 lung, 15.6 µM in the test on NCI-H522 lung, > 100 µM in the test with SNB-19 CNS and > 100 µM in the test with T-47D breast.
`O=C(N/N=C/c1ccccc1O)C(O)(c1ccccc1)c1ccccc1`: the GI50 with A549 NSCLC is 9.67 µM; in the test on BT-549 breast, > 100 µM; in the test on HCT-116 colon, 2.95 µM; in the test with HOP-62 NSCLC, 7.37 µM; with K-562 leukemia, 6.73 µM; in the test with LOX IMVI melanoma, 5.09 µM. Besides, the GI50 in the test with NCI-H460 lung is 3.54 µM; in the test with NCI-H522 lung, 19.7 µM; in the test with SNB-19 CNS it was > 100 µM; in the test on T-47D breast, 8.02 µM. Further, the TGI in the test on A549 NSCLC, with BT-549 breast, with HCT-116 colon, in the test on HOP-62 NSCLC, in the test on K-562 leukemia and in the test on LOX IMVI melanoma was > 100 µM throughout. Besides, the TGI in the test on NCI-H460 lung, with NCI-H522 lung, in the test on SNB-19 CNS and in the test on T-47D breast was > 100 µM each time.
As to `COC(=O)[C@H]1[C@@H](O)[C@@]2(O)c3c(OC)cc(O[C@@H]4O[C@@H]([C@H](O)CO)CO[C@H]4OC)cc3O[C@@]2(c2ccc(OC)cc2)[C@@H]1c1ccccc1`, the GI50 in the test on A549 NSCLC was 0.00463 µM; with BT-549 breast, 0.00434 µM; in the test on HCT-116 colon, 0.00371 µM; in the test on HOP-62 NSCLC, 0.00319 µM; in the test with K-562 leukemia, 0.00386 µM; in the test with LOX IMVI melanoma it was 0.00263 µM. For the same molecule, the concentration for 50% growth inhibition (GI50) was 0.004 µM with NCI-H460 lung, 0.00344 µM in the test with NCI-H522 lung, 0.00277 µM in the test on SNB-19 CNS and 0.00226 µM in the test with T-47D breast. Further, the TGI in the test on A549 NSCLC is 0.0457 µM; in the test on BT-549 breast, 0.0322 µM; in the test with HOP-62 NSCLC, 0.0181 µM; in the test with K-562 leukemia, > 1 µM; with LOX IMVI melanoma it was 0.00986 µM; in the test with NCI-H460 lung, 0.0695 µM. Moreover, the TGI with NCI-H522 lung stood at 0.0241 µM; in the test with SNB-19 CNS, 0.0384 µM; in the test with T-47D breast, 0.0199 µM.
For `N=C(N)/N=C(\N)c1c(-c2cc(O)ccc2O)nc2sccn12`, the GI50 in the test with A549 NSCLC was > 100 µM; in the test with BT-549 breast, 30.4 µM; with HCT-116 colon it was 17.3 µM; in the test on HOP-62 NSCLC, 29.4 µM; with K-562 leukemia, 33 µM; with LOX IMVI melanoma it was 22.8 µM. Also, the GI50 was > 100 µM with NCI-H460 lung, 32.4 µM in the test with NCI-H522 lung, > 100 µM in the test with SNB-19 CNS and 20.7 µM with T-47D breast. The TGI in the test on A549 NSCLC was > 100 µM; in the test with BT-549 breast it was 84.3 µM; in the test with HCT-116 colon, 35.9 µM; in the test with HOP-62 NSCLC, 84.6 µM; in the test with K-562 leukemia, > 100 µM; in the test on LOX IMVI melanoma, 44.5 µM. The total growth inhibition concentration (TGI) with NCI-H460 lung was > 100 µM; with NCI-H522 lung, > 100 µM; with SNB-19 CNS, > 100 µM; in the test on T-47D breast, 45.1 µM.
Turning to `CCOC(=O)C(Cc1c[nH]c2ccc([N+](=O)[O-])cc12)(NC(C)=O)C(=O)OCC`, the GI50 with A549 NSCLC was 67.3 µM; with BT-549 breast it was 44.5 µM; in the test on HCT-116 colon it was 139 µM; with HOP-62 NSCLC, 304 µM; with K-562 leukemia, 47.7 µM; in the test on LOX IMVI melanoma, > 419 µM. The GI50 in the test with NCI-H460 lung is > 306 µM; in the test with NCI-H522 lung it was 79.5 µM; with SNB-19 CNS, 138 µM; in the test with T-47D breast it was 50.1 µM. Further, the TGI is > 1000 µM in the test with A549 NSCLC; 426 µM in the test with BT-549 breast; > 1000 µM in the test with HCT-116 colon; > 606 µM in the test on HOP-62 NSCLC; > 1000 µM with K-562 leukemia; > 1000 µM in the test on LOX IMVI melanoma. For the same molecule, the concentration for total growth inhibition (TGI) with NCI-H460 lung is > 1000 µM; with NCI-H522 lung, 460 µM; in the test with SNB-19 CNS, 598 µM; in the test on T-47D breast, > 1000 µM.
